Results from PubChem BioAssay AID1259411 (Chemical Carcinogenesis Research Information System (CCRIS), 2018).
Activity calls are given as the source filed them. The rule behind the calls is not given here.

Test system: rodent carcinogenicity bioassays, tumor incidence
Assay: CCRIS carcinogenicity studies
Text: The CCRIS database contains chemical records with carcinogenicity, mutagenicity, tumor promotion, and tumor inhibition test results. It was developed by the National Cancer Institute (NCI). Data are derived from studies cited in primary journals, current awareness tools, NCI reports, and other sources. Test results have been reviewed by experts in carcinogenesis and mutagenesis.
CCRIS provides historical information from the years 1985 - 2011. It is no longer updated.
This is an archive assay for CCRIS carcinogenicity studies.

CC1=C[C@]2(O[C@@H]3O[C@H](CO)[C@@H](O)[C@H](O)[C@H]3O)C[C@@H](C)C(=O)[C@@H]2[C@](C)(O)C12CC2
carcinogen call (Species: RAT, Strain/Sex: CD-1/FEMALE, Route: INTRAGASTRIC, Dose: 0, 100-150 MG/KG BW IN SALINE 2/WK FOR 8 WK THEN ONCE ON WK 9 (TOTAL DOSE: 0; 339 MG) (STUDY DURATION: 300 D), Dose: 0, 100-150 MG/KG BW IN SALINE 2/WK FOR 8 WK THEN ONCE ON WK 9 (TOTAL DOSE: 0; 339 MG) (STUDY DURATION: 300 D), Tumor Site: Type of Lesion: MAMMARY GLAND: ADENOCARCINOMA, CARCINOMA, SMALL INTESTINE: ADENOCARCINOMA, BLADDER: PAPILLOMA, Tumor Site: Type of Lesion: MAMMARY GLAND: ADENOCARCINOMA, CARCINOMA, SMALL INTESTINE: ADENOCARCINOMA, BLADDER: PAPILLOMA): active; positive | carcinogen call (Species: RAT, Strain/Sex: CD-1/FEMALE, Route: INTRAGASTRIC, Dose: 0, 780 MG/KG BW IN SALINE ONCE THEN 0, 100-200 MG/KG 1/WK FOR 8 WK (TOTAL DOSE: 0; 300 MG) (STUDY DURATION: 300 D), Dose: 0, 780 MG/KG BW IN SALINE ONCE THEN 0, 100-200 MG/KG 1/WK FOR 8 WK (TOTAL DOSE: 0; 300 MG) (STUDY DURATION: 300 D), Tumor Site: Type of Lesion: MAMMARY GLAND: ADENOCARCINOMA, CARCINOMA, SMALL INTESTINE: ADENOCARCINOMA): active; positive

Nc1ccccc1N
carcinogen call (Species: MOUSE, Route: ORAL, Tumor Site: Type of Lesion: LIVER): active; positive | carcinogen call (Species: RAT, Route: ORAL, Tumor Site: Type of Lesion: LIVER): active; positive

CCCCN(N=O)C(=O)CCC
carcinogen call (Species: RAT, Strain/Sex: F344/MALE,FEMALE, Route: SUBCUTANEOUS, Dose: 38 UMOL/KG IN OLIVE OIL 1/WK FOR 10 WK, Tumor Site: Type of Lesion: INJECTION SITE: MALIGNANT FIBROUS HISTIOCYTOMA, LUNG: ADENOMA): active; positive

c1ccc(-c2ccccc2)cc1
carcinogen call (Species: MOUSE, Strain/Sex: CRJ:BDF1/FEMALE, Route: ORAL, Dose: 667, 2000, 6000 PPM IN DIET FOR 2 YRS (STUDY DURATION: 2 YRS), Dose: 667, 2000, 6000 PPM IN DIET FOR 2 YRS (STUDY DURATION: 2 YRS), Tumor Site: Type of Lesion: LIVER: HEPATOCELLULAR ADENOMA AND CARCINOMA): active; positive | carcinogen call (Species: MOUSE, Strain/Sex: CRJ:BDF1/MALE, Route: ORAL, Dose: 0, 667, 2000, 6000 PPM IN DIET FOR 2 YRS (STUDY DURATION: 2 YRS), Dose: 0, 667, 2000, 6000 PPM IN DIET FOR 2 YRS (STUDY DURATION: 2 YRS)): inactive; negative | carcinogen call (Species: RAT, Strain/Sex: F344/FEMALE, Route: ORAL, Dose: 0, 500, 1500, 4500 PPM IN DIET FOR 105 WK (STUDY DURATION: 105 WK ), Dose: 0, 500, 1500, 4500 PPM IN DIET FOR 105 WK (STUDY DURATION: 105 WK )): inactive; negative | carcinogen call (Species: RAT, Strain/Sex: F344/MALE, Route: ORAL, Dose: 0, 500, 1500, 4500 PPM IN DIET FOR 105 WK (STUDY DURATION: 105 WK ), Dose: 0, 500, 1500, 4500 PPM IN DIET FOR 105 WK (STUDY DURATION: 105 WK ), Tumor Site: Type of Lesion: URINARY BLADDER: TRANSITIONAL CELL PAPILLOMA, TRANSITIONAL CELL CARCINOMA): active; positive

O=[N+]([O-])c1ccc2c(c1)Cc1ccccc1-2
carcinogen call (Species: RAT, Strain/Sex: WISTAR/MALE, Route: ORAL, Dose: 0, 0.24, 0.95, 2.37 MMOL/KG DIET FOR 11 MO FOLLOWED BY BASAL DIET FOR 13 MO (STUDY DURATION: 24 MO), Dose: 0, 0.24, 0.95, 2.37 MMOL/KG DIET FOR 11 MO FOLLOWED BY BASAL DIET FOR 13 MO (STUDY DURATION: 24 MO), Tumor Site: Type of Lesion: LIVER: HEPATOCELLULAR CARCINOMA, FORESTOMACH: SQUAMOUS CELL CARCINOMA, KIDNEY: CARCINOMA, Tumor Site: Type of Lesion: LIVER: HEPATOCELLULAR CARCINOMA, FORESTOMACH: SQUAMOUS CELL CARCINOMA, KIDNEY: CARCINOMA): active; positive

CCCC(=O)CN(C)N=O
carcinogen call (Species: RAT, Strain/Sex: WISTAR/MALE, FEMALE, Route: SUBCUTANEOUS, Dose: 0, 75 MG/KG 1/WK FOR 6 WK TO ADULT ANIMALS (STUDY DURATION: LIFETIME), Tumor Site: Type of Lesion: ESOPHAGUS: PAPILLOMA, NASAL CAVITY: PAPILLOMA, SQUAMOUS CARCINOMA OR ADENOMA, SOFT TISSUE (INJECTION SITE): SARCOMA, THY, Tumor Site: Type of Lesion: ESOPHAGUS: PAPILLOMA, NASAL CAVITY: PAPILLOMA, SQUAMOUS CARCINOMA OR ADENOMA, SOFT TISSUE (INJECTION SITE): SARCOMA, THY): active; positive | carcinogen call (Species: RAT, Strain/Sex: WISTAR/MALE,FEMALE, Route: INTRAPERITONEAL, Dose: 0, 75 MG/KG 1/WK FOR 6 WK BEGINNING AT 52-61 DAYS OF AGE (STUDY DURATION: >35 WK), Tumor Site: Type of Lesion: ESOPHAGUS: PAPILLOMA, NASAL CAVITY: TUMOR, INJECTION SITE: SARCOMA, Tumor Site: Type of Lesion: ESOPHAGUS: PAPILLOMA, NASAL CAVITY: TUMOR, INJECTION SITE: SARCOMA): active; positive

CCOC(=O)C(O)(c1ccc(Cl)cc1)c1ccc(Cl)cc1
carcinogen call (Species: MOUSE, Strain/Sex: B6C3F1/FEMALE, Route: ORAL, Dose: 0, 3200, 5908 PPM IN DIET FOR 78 WK (STUDY DURATION: 90-91 WK), Dose: 0, 3200, 5908 PPM IN DIET FOR 78 WK (STUDY DURATION: 90-91 WK), Tumor Site: Type of Lesion: LIVER: HEPATOCELLULAR CARCINOMA): active; positive | carcinogen call (Species: MOUSE, Strain/Sex: B6C3F1/MALE, Route: ORAL, Dose: 0, 4231, 7846 PPM IN DIET FOR 78 WK (STUDY DURATION: 90-91 WK), Dose: 0, 4231, 7846 PPM IN DIET FOR 78 WK (STUDY DURATION: 90-91 WK), Tumor Site: Type of Lesion: LIVER: HEPATOCELLULAR CARCINOMA): active; positive | carcinogen call (Species: RAT, Strain/Sex: OSBORNE-MENDEL/FEMALE, Route: ORAL, Dose: 0, 1175, 2229 PPM IN DIET FOR 78 WK (STUDY DURATION: 110-111 WK), Dose: 0, 1175, 2229 PPM IN DIET FOR 78 WK (STUDY DURATION: 110-111 WK), Tumor Site: Type of Lesion: ADRENAL GLAND: CORTICAL ADENOMA): equivocal | carcinogen call (Species: RAT, Strain/Sex: OSBORNE-MENDEL/MALE, Route: ORAL, Dose: 0, 1600, 2995 PPM IN DIET FOR 78 WK (STUDY DURATION: 110-111 WK), Dose: 0, 1600, 2995 PPM IN DIET FOR 78 WK (STUDY DURATION: 110-111 WK), Tumor Site: Type of Lesion: ADRENAL GLAND: CORTICAL ADENOMA): equivocal

Oc1ccc(-c2c(Cl)cc(Cl)cc2Cl)cc1
carcinogen call (Species: MOUSE, Strain/Sex: BALB/CCRGL/FEMALE, Route: SUBCUTANEOUS, Dose: 20 UG DAILY FOR 5 D BEGINNING 16 HR AFTER BIRTH (STUDY DURATION: 20 MO), Tumor Site: Type of Lesion: MAMMARY GLAND: CARCINOMA (5/33), CERVICOVAGINAL TRACT: CARCINOMA (2/33), LUNG TUMORS (3/33), Tumor Site: Type of Lesion: MAMMARY GLAND: CARCINOMA (5/33), CERVICOVAGINAL TRACT: CARCINOMA (2/33), LUNG TUMORS (3/33)): active; positive; (statistically significant for total number of tumors) | carcinogen call (Species: MOUSE, Strain/Sex: BALB/CCRGL/FEMALE, Route: SUBCUTANEOUS, Dose: 200 UG DAILY FOR 5 D BEGINNING 16 HR AFTER BIRTH (STUDY DURATION: 20 MO), Tumor Site: Type of Lesion: CERVICOVAGINAL TRACT: CARCINOMA (10/22)): active; positive

Cc1nn(C)c(Oc2ccccc2)c1/C=N/OCc1ccc(C(=O)OC(C)(C)C)cc1
carcinogen call (Species: Mouse, Strain/Sex: ICR (Crj:CD-1)/Female (50/Group), Route: Oral, Dose: 0, 25, 100, 400, 800 ppm (0; 2.4; 10.2; 41.4; 73.1 mg/kg/day) for 18 mo, study duration 18 mo, Dose: 0, 25, 100, 400, 800 ppm (0; 2.4; 10.2; 41.4; 73.1 mg/kg/day) for 18 mo, study duration 18 mo): inactive; negative | carcinogen call (Species: Mouse, Strain/Sex: ICR (Crj:CD-1)/Male (50/Group), Route: Oral, Dose: 0, 25, 100, 400, 800 ppm (0; 2.4; 9.5; 38.0; 69.6 mg/kg/day) for 18 mo, study duration 18 mo, Dose: 0, 25, 100, 400, 800 ppm (0; 2.4; 9.5; 38.0; 69.6 mg/kg/day) for 18 mo, study duration 18 mo): inactive; negative | carcinogen call (Species: Rat, Strain/Sex: CD/Female (50/Group), Route: Oral, Dose: 0, 10, 25, 75, 150 ppm of 97.2% fenpyroximate (0; 0.49; 1.21; 3.81; 8.01 mg/kg/day) for 104 wk, study duration 104 wk, Dose: 0, 10, 25, 75, 150 ppm of 97.2% fenpyroximate (0; 0.49; 1.21; 3.81; 8.01 mg/kg/day) for 104 wk, study duration 104 wk): inactive; negative | carcinogen call (Species: Rat, Strain/Sex: CD/Male (50/Group), Route: Oral, Dose: 0, 10, 25, 75, 150 ppm of 97.2% fenpyroximate (0; 0.40; 0.97; 3.00; 6.20 mg/kg/day) for 104 wk, study duration 104 wk, Dose: 0, 10, 25, 75, 150 ppm of 97.2% fenpyroximate (0; 0.40; 0.97; 3.00; 6.20 mg/kg/day) for 104 wk, study duration 104 wk): inactive; negative

CC(=O)C=O
carcinogen call (Species: MOUSE, Strain/Sex: CD-1/FEMALE, Route: DERMAL, Dose: 0, 50 UMOL/0.1 ML DMSO 2/WK FOR 5 WK FOLLOWED 1 WK LATER BY 0.1 ML ACETONE 2/WK FOR 47 WK (STUDY DURATION: 52 WK)): inactive; negative
